Literature values as cited in US20240000142A1, “AEROSOL […] FOR AQUEOUS CANNABINOID COMPOSITIONS” (OMEGA LIFE SCIENCE LTD., priority 2020, published 2024).

Settings: nicotine as a weak base; "as appreciated by the skilled in the art"

For `CN1CCCC1c1cccnc1` (stereo not shown) [nicotine], which pKa is on record?
The pKa was “about 8”.
